The record followed here is patent US10603345B2, “Pharmaceutical composition for treating respiratory disease” (Kunming Institute of Botany, The Chinese Academy of Sciences, priority 2015, dated 2020).

Format in all cases: in vivo
Test [1] relates to white blood cell count and classification in BALF of COPD model mouse. Briefly: Effect on white blood cell count and classification in BALF of COPD model mouse. As to conditions: COPD mouse (LPS plus smoke exposure 30 days), ig 7 d, dose/kg: dexamethasone 1 mg, Test group 1 50, 2 25, 3 10, picrinine 10, vallesamine 6, scholaricine 7, 19-epi-scholaricine 2 mg, x ± SD. The procedure: (§1) Animal source: 25˜30 g male ICR mouse, from laboratory animal department of Kunming Medical University, License No. SCXK (Dian) 2011-0004.
(§2) Method and route: lipopolysaccharide (LPS) plus smoke exposure was used for 30 days to induce mouse chronic obstructive pulmonary disease model; and after intragastrical administration for 7 d at a dose of 20 mL/kg, the animal was sacrificed at the eighth day.
(§3) Picrinine group (10 mg/kg), Vallesamine group (6.0 mg/kg), Scholaricine group (7.0 mg/kg), 19-epischolaricine group (2.0 mg/kg).
(§4) Sample preparation: all the samples were prepared by using 0.5% carboxymethylcellulose sodium (0.5% CMC-Na).
Group and dose: in Test group 1, the ratio of picrinine, vallesamine, scholaricine and 19-epischolaricine by weight was 48:40:29:10, and the other groups and doses thereof were as described in Example 10.
Test index: total number of white blood cells and inflammatory cell classification in bronchoalveolar lavage fluid (BALF) were used as indexes, and were determined by full-automatic hemocytometer.

Test [2] concerns IL-6 in serum of COPD model mouse. Briefly: Effect on IL-6 in serum of COPD model mouse. As to conditions: ELISA, ig 7 d, dose/kg: dexamethasone 1 mg, Test group 1 50, 2 25, 3 10, picrinine 10, vallesamine 6, scholaricine 7, 19-epi-scholaricine 2 mg, x ± SD. The procedure:
as §1, §2, §3, §4
Group and dose: in Test group 1, the ratio of picrinine, vallesamine, scholaricine and 19-epischolaricine by weight was 38:30:27:7, and the other groups and doses thereof were as described in Example 10.
Test index: IL-6 in serum was used as index, and was determined by enzyme linked immunosorbent assay.
(In general: An ELISA detects its analyte on a solid surface through an enzyme-linked reagent.)

Test [3] deals with CRP in serum in COPD model mouse. Briefly: Effect on CRP in serum in COPD model mouse. To be noted: ELISA, ig 7 d, dose/kg: dexamethasone 1 mg, Test group 1 50, 2 25, 3 10, picrinine 10, vallesamine 6, scholaricine 7, 19-epi-scholaricine 2 mg, x ± SD. The procedure: as §1, §2, §3, §4
Group and dose: in Test group 1, the ratio of picrinine, vallesamine, scholaricine and 19-epischolaricine by weight was 25:19:20:4, and the other groups and doses thereof were as described in Example 10.
Test index: CRP in serum was used as index, and was determined by enzyme linked immunosorbent assay.

The test system of test [4] is SOD in serum and homogenate of COPD model mouse. The test can be described thus: Effect on SOD in serum and homogenate of COPD model mouse. To be noted: ig 7 d, dose/kg: dexamethasone 1 mg, Test group 1 50, 2 25, 3 10, picrinine 10, vallesamine 6, scholaricine 7, 19-epi-scholaricine 2 mg, x ± SD. The procedure: as §1, §2, §3, §4
Group and dose: in Test group 1, the ratio of picrinine, vallesamine, scholaricine and 19-epischolaricine by weight was 16:11:12:3, and the other groups and doses thereof were as described in Example 10.
Test index: SOD in serum and lung homogenate was used as index, and was determined by xanthine oxidase method.

Test [5] has as its system MDA in serum and homogenate of COPD model mouse. The test can be described thus: Effect on MDA in serum and homogenate of COPD model mouse. As to conditions: ig 7 d, dose/kg: dexamethasone 1 mg, Test group 1 50, 2 25, 3 10, picrinine 10, vallesamine 6, scholaricine 7, 19-epi-scholaricine 2 mg, x ± SD. The protocol: as §1, §2, §3, §4
Group and dose: in Test group 1, the ratio of picrinine, vallesamine, scholaricine and 19-epischolaricine by weight was 9:6:5:1, and the other groups and doses thereof were as described in Example 10.
Test index: MDA in serum and homogenate was used as index, and was determined by thibabituric acid method.

In test [6] the test system is WBC count and eosinophil percentage in BALF of asthma model mouse. The test can be described thus: Effect on WBC count and eosinophil percentage in BALF of asthma model mouse. To be noted: OVA-induced asthma mouse, ig 7 d, dose/kg: dexamethasone 2 mg, Test group 1 50, 2 25, picrinine 5.0, vallesamine 3.0, scholaricine 3.0, 19-epi-scholaricine 3.5 mg, x ± SD. The protocol: as §1
(§5) Method and route: ovalbumin (OVA) was used to induce mouse asthma model, and after intragastrical administration for 7 d at a dose of 20 mL/kg, the animal was sacrificed at the eighth day.
(§6) Test group 1: picrinine, vallesamine, scholaricine and 19-epischolaricine prepared in Example 1.7 were homogeneously mixed at different ratios by weight (50 mg/kg), Test group 2: the alkaloid composition prepared in Example 1.4 (25 mg/kg). […]
as §4
Group and dose: in Test group 1, the ratio of picrinine, vallesamine, scholaricine and 19-epischolaricine by weight was 41:45:28:7, and the other groups and doses thereof were as described in Example 11.
Test index: number of white blood cells (WBCs) and number of eosinophil in bronchoalveolar lavage fluid (BALF) were used as index, and were determined by full-automatic hemocytometer.

For test [7], the system named is Eotaxin in serum of asthma model mouse. Briefly: Effect on Eotaxin in serum of asthma model mouse. As to conditions: ELISA, ig 7 d, dose/kg: dexamethasone 2.0 mg, Test group 1 50, 2 25, picrinine 5.0, vallesamine 3.0, scholaricine 3.0, 19-epi-scholaricine 3.5 mg, x ± SD. The procedure:
as §1, §5, §6, §4
Group and dose: in Test group 1, the ratio of picrinine, vallesamine, scholaricine and 19-epischolaricine by weight was 37:42:30:8, and the other groups and doses thereof were as described in Example 11.
Test index: eosinophil chemotactic factor (Eotaxin) in serum was used as index, and was determined by enzyme linked immunosorbent assay.

The subject of test [8] is IgE in serum of asthma model mouse. The test can be described thus: Effect on IgE in serum of asthma model mouse. To be noted: ELISA, ig 7 d, dose/kg: dexamethasone 2.0 mg, Test group 1 50, 2 25, picrinine 5.0, vallesamine 3.0, scholaricine 3.0, 19-epi-scholaricine 3.5 mg, x ± SD. The protocol: as §1, §5, §6, §4
Group and dose: In Test group 1, the ratio of picrinine, vallesamine, scholaricine and 19-epischolaricine by weight was 30:33:27:6, and the other groups and doses thereof were as described in Example 11.
Test index: immunoglobulin IgE in serum was used as index, and was determined by enzyme linked immunosorbent assay.

In test [9] the test system is IL-4 in BALF of asthma model mouse. Briefly: Effect on IL-4 in BALF of asthma model mouse. To be noted: ELISA, ig 7 d, dose/kg: dexamethasone 2.0 mg, Test group 1 50, 2 25, picrinine 5.0, vallesamine 3.0, scholaricine 3.0, 19-epi-scholaricine 3.5 mg, x ± SD. The protocol:
as §1, §5, §6, §4
Group and dose: in Test group 1, the ratio of picrinine, vallesamine, scholaricine and 19-epischolaricine by weight was 25:18:15:3, and the other groups and doses thereof were as described in Example 11. […]

For test [10], the system named is IL-10 in BALF of asthma model mouse. The test can be described thus: Effect on IL-10 in BALF of asthma model mouse. To be noted: ELISA, ig 7 d, dose/kg: dexamethasone 2.0 mg, Test group 1 50, 2 25, picrinine 5.0, vallesamine 3.0, scholaricine 3.0, 19-epi-scholaricine 3.5 mg, x ± SD. The procedure: as §1, §5, §6, §4
Group and dose: in Test group 1, the ratio of picrinine, vallesamine, scholaricine and 19-epischolaricine by weight was 18:13:14:3, and the other groups and doses thereof were as described in Example 11.
Test index: IL-10 in BALF was used as index, and was determined by enzyme linked immunosorbent assay.

Test [11] has as its system SOD in serum and BALF of asthma model mouse. The test can be described thus: Effect on SOD in serum and BALF of asthma model mouse. As to conditions: ig 7 d, dose/kg: dexamethasone 2.0 mg, Test group 1 50, 2 25, picrinine 5.0, vallesamine 3.0, scholaricine 3.0, 19-epi-scholaricine 3.5 mg, x ± SD. The procedure:
as §1, §5, §6, §4
Group and dose: in Test group 1, the ratio of picrinine, vallesamine, scholaricine and 19-epischolaricine by weight was 12:10:9:2, and the other groups and doses thereof were as described in Example 11.
Test index: SOD in serum and BALF was used as index, and was determined by xanthine oxidase method.

Test [12] deals with MDA in serum and BALF of asthma model mouse. Briefly: Effect on MDA in serum and BALF of asthma model mouse. As to conditions: ig 7 d, dose/kg: dexamethasone 2.0 mg, Test group 1 50, 2 25, picrinine 5.0, vallesamine 3.0, scholaricine 3.0, 19-epi-scholaricine 3.5 mg, x ± SD. The procedure: as §1, §5, §6, §4
Group and dose: in Test group 1, the ratio of picrinine, vallesamine, scholaricine and 19-epischolaricine by weight was 8:6:5:1, and the other groups and doses thereof were as described in Example 11.
Test index: MDA in serum and BALF was used as index, and was determined by thiobarbituric acid method.

Take `C[C@@H]1C[C@H]2[C@@H]3CCC4=CC(=O)C=C[C@]4(C)[C@@]3(F)[C@@H](O)C[C@]2(C)[C@@]1(O)C(=O)CO` [dexamethasone, reference compound]: in test [1], the Leukocyte number is recorded as 1.1 ± 0.5 ×10^5/mL and the Neutrophil number is on record as 0.53 ± 0.50 ×10^5/mL. The same compound had an IL-6 in [2] of 22.0 ± 2.0 pg/mL. In addition, in [3], the CRP is recorded as 22.3 ± 2.0 pg/mL. In addition, the SOD homogenate in test [4] (lung homogenate) worked out at 63.92 ± 5.84 U/mL. In test [4] (serum), the “SOD Serum” value is recorded as 86.85 ± 9.48 U/mL. Moreover, the “MDA Homogenate” value in [5] (lung homogenate) is 6.23 ± 0.60 nmol/mL. Further, the “MDA Serum” value in test [5] (serum) amounted to 14.04 ± 3.64 nmol/mL. In [6], the Eosinophil percentage is reported as 4.32 ± 1.12 % and the “Number of WBCs” value is 0.50 ± 0.17 ×10^9/L. In [7], this compound displayed an Eotaxin of 7.87 ± 0.45 pg/mL. The same compound came in with an IgE in test [8] of 3.23 ± 0.53 g μg/mL. Moreover, the IL-4 in [9] was determined as 9.96 ± 4.03 pg/mL. This compound also gave an IL-10 in [10] of 17.45 ± 5.60 pg/mL. The compound also showed an SOD lavage fluid in test [11] (BALF) of 76.57 ± 12.52 U/mL. In test [11] (serum), the SOD Serum worked out at 74.83 ± 8.43 U/mL. Besides, in [12] (BALF), the MDA lavage fluid is 2.17 ± .17 nmol/mL. In [12] (serum), this compound came in with an MDA Serum of 10.99 ± 2.38 nmol/mL.
